Key:
Assay in all cases: combination Emax (second highest fraction inhibited in the dose matrix, 72 h); higher = more inhibition; extreme values may be limits of the assay
[1] = tested on: TE-10 (Esophageal Squamous Cell Carcinoma)
Outline: (§1)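 Cell lines grown in DMEM/F12 or RPMI with 10% FBS were plated in 1536-well plates and held 24 hours at 37°C, 5% CO2 before 72 hours of exposure to two-drug dose matrices, with DMSO typically at 0.2%. CellTiter-Glo 2.0 luminescence gave viability, which was converted to inhibition. Vehicle wells were set to 0 and blank wells to 1. Combination Emax is the second-highest inhibition in the matrix, and Bliss excess is the observed combination effect minus the expected EA + EB − EA·EB, where EA and EB are the single-agent effects.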

RH-41 (Rhabdomyosarcoma) = tested on: RH-41 (Rhabdomyosarcoma)
Outline: as §1

[2] = tested on: GCT (Other Solid Carcinomas)
Outline: as §1

[3] = tested on: A253 (Head and Neck Carcinoma)
Outline: as §1

[4] = tested on: OACp4C (Esophageal Adenocarcinoma)
Outline: as §1

AU565 (Breast Carcinoma) = tested on: AU565 (Breast Carcinoma)
Outline: as §1

A101D (Melanoma) = tested on: A101D (Melanoma)
Outline: as §1

[5] = tested on: HT55 (Colorectal Carcinoma)
Outline: as §1

[6] = tested on: huH-1 (Hepatocellular Carcinoma)
Outline: as §1

[7] = tested on: LS-411N (Colorectal Carcinoma)
Outline: as §1

[8] = tested on: Jurkat (T-Lymphoblastic Leukemia)
Outline: as §1

KP-N-YN (Neuroblastoma) = tested on: KP-N-YN (Neuroblastoma)
Outline: as §1

Row | SMILES | combination Emax [1] | combination Emax (RH-41 (Rhabdomyosarcoma)) | combination Emax [2] | combination Emax [3] | combination Emax [4] | combination Emax (AU565 (Breast Carcinoma)) | combination Emax (A101D (Melanoma)) | combination Emax [5] | combination Emax [6] | combination Emax [7] | combination Emax [8] | combination Emax (KP-N-YN (Neuroblastoma))
1 | CN(CCO)CC[C@H](CSc1ccccc1)Nc1ccc(S(=O)(=O)NC(=O)c2ccc(N3CCC([C@@H](O)c4ccccc4-c4ccc(Cl)cc4)CC3)cc2)cc1S(=O)(=O)C(F)(F)F [AZD4320] + C[C@@H]1COCCN1C2=NC(=NC(=C2)C3(CC3)[S@](=N)(=O)C)C4=C5C=CNC5=NC=C4 [AZD6738] (first compound max 1 µM, 7x7, partner max 10 µM) | 0.84 | 0.964 | 0.304 | 0.892 | 0.95 | 0.494 | 0.891 | 0.707 | 0.823 | 0.943 | 0.955 | 
2 | CN(CCO)CC[C@H](CSc1ccccc1)Nc1ccc(S(=O)(=O)NC(=O)c2ccc(N3CCC([C@@H](O)c4ccccc4-c4ccc(Cl)cc4)CC3)cc2)cc1S(=O)(=O)C(F)(F)F [AZD4320] + C[C@@H](Nc1cc(F)cc(F)c1)c1cc(C(=O)N(C)C)cc2c(=O)cc(N3CCOCC3)oc12 [AZD8186] (first compound max 1 µM, 7x7, partner max 3 µM) | 0.618 | 0.941 | 0.442 | 0.437 | 0.916 | 0.364 | 0.781 | 0.422 | 0.229 | 0.414 | 0.842 | 
3 | CN(CCO)CC[C@H](CSc1ccccc1)Nc1ccc(S(=O)(=O)NC(=O)c2ccc(N3CCC([C@@H](O)c4ccccc4-c4ccc(Cl)cc4)CC3)cc2)cc1S(=O)(=O)C(F)(F)F [AZD4320] + Cc1cc2ncnn2cc1Nc1ncc2c(n1)n(C1CCOCC1)c(=O)n2C [AZD7648] (first compound max 1 µM, 7x7, partner max 10 µM) | 0.202 | 0.91 | 0.25 | 0.149 | 0.906 | 0.327 | 0.452 | 0.196 | 0.127 | 0.183 | 0.655 | 
4 | CN(CCO)CC[C@H](CSc1ccccc1)Nc1ccc(S(=O)(=O)NC(=O)c2ccc(N3CCC([C@@H](O)c4ccccc4-c4ccc(Cl)cc4)CC3)cc2)cc1S(=O)(=O)C(F)(F)F [AZD4320] + Cn1cnc2c(F)c(Nc3ccc(Br)cc3Cl)c(C(=O)NOCCO)cc21 [Selumetinib] (first compound max 1 µM, 7x7, partner max 3 µM) | 0.562 | 0.855 | 0.352 | 0.523 | 0.967 | 0.421 | 0.781 | 0.721 | 0.291 | 0.907 | 0.798 | 
5 | Cc1cc2ncnn2cc1Nc1ncc2c(n1)n(C1CCOCC1)c(=O)n2C [AZD7648] + C=CCn1c(=O)c2cnc(Nc3ccc(N4CCN(C)CC4)cc3)nc2n1-c1cccc(C(C)(C)O)n1 [AZD1775] (first compound max 10 µM, partner max 1 µM) | 0.86 | 0.927 | 0.452 | 0.415 | 0.814 | 0.547 | 0.762 | 0.341 | 0.746 | 0.574 | 0.886 | 0.942
6 | Cc1cc2ncnn2cc1Nc1ncc2c(n1)n(C1CCOCC1)c(=O)n2C [AZD7648] + CCN(CCO)CCCOc1ccc2c(Nc3cc(CC(=O)Nc4cccc(F)c4)[nH]n3)ncnc2c1 [AZD2811] (first compound max 10 µM, 7x7, partner max 1 µM) | 0.335 | 0.329 | 0.312 | 0.316 | 0.63 | 0.366 | 0.39 | 0.229 | 0.561 | 0.208 | 0.232 | 0.6
7 | Cc1cc2ncnn2cc1Nc1ncc2c(n1)n(C1CCOCC1)c(=O)n2C [AZD7648] + CN(C)CCCOc1ccc(-c2ccc3ncc4c(c3c2)n(C2CCOCC2)c(=O)n4C)cn1 [AZD0156] (first compound max 10 µM, 7x7, partner max 1 µM) | 0.292 | 0.282 | 0.343 | 0.244 | 0.329 | 0.593 | 0.374 | 0.169 | 0.3 | 0.115 | 0.23 | 0.265
8 | Cc1cc2ncnn2cc1Nc1ncc2c(n1)n(C1CCOCC1)c(=O)n2C [AZD7648] + C[C@@H]1COCCN1C2=NC(=NC(=C2)C3(CC3)[S@](=N)(=O)C)C4=C5C=CNC5=NC=C4 [AZD6738] (first compound max 10 µM, 7x7, partner max 10 µM) | 0.887 | 0.705 | 0.245 | 0.77 | 0.666 | 0.416 | 0.778 | 0.429 | 0.8 | 0.723 | 0.814 | 0.947
9 | Cc1cc2ncnn2cc1Nc1ncc2c(n1)n(C1CCOCC1)c(=O)n2C [AZD7648] + O=C(c1cc(Cc2n[nH]c(=O)c3ccccc23)ccc1F)N1CCN(C(=O)C2CC2)CC1 [Olaparib] (first compound max 10 µM, 7x7, partner max 10 µM) | 0.233 | 0.345 | 0.243 | 0.17 | 0.363 | 0.213 | 0.261 | 0.129 | 0.198 | 0.0674 | 0.508 | 0.346
10 | COc1cc2c(cc1OCCCCCOc1cc3c(cc1OC)C(=O)N1C=C(C)C[C@H]1C=N3)N=C[C@@H]1CC(C)=CN1C2=O [SG3199] + O=C(c1cc(Cc2n[nH]c(=O)c3ccccc23)ccc1F)N1CCN(C(=O)C2CC2)CC1 [Olaparib] (first compound max 0.001 µM, 7x7, partner max 10 µM) | 0.107 | 0.245 | 0.204 | 0.0649 | 0.136 | 0.138 | 0.214 | 0.149 | 0.142 | 0.0262 | 0.356 | 0.341
